Laboratory results from US20260207654A1, “HEPARAN SULFATE AND ITS MIMETICS AS CHEMOKINE INHIBITORS” (INDIAN INSTITUTE OF SCIENCE EDUCATION AND RESEARCH, priority 2021, published 2026).

Legend:
[1] = biological target: T1, CXCL10 (Homo sapiens, UniProt P02778); assay: Surface Plasmon Resonance (SPR) binding kinetics; conditions: compound immobilized on CM5 chip, 25° C., 1:1 model
T1 sequence (P02778 22-98): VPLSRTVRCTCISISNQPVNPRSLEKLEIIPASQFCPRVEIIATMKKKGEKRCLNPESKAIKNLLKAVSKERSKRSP
Experimental: (§1) FIG. 1: SPR analysis of chemokines binding profile for the compounds of present invention: SPR binding analysis of the interaction between the examples 12, 17, and 19, chemokines were reported, Concentrations of chemokines were 0.05-2 μM. A global fit according to a 1:1 binding model was applied (black curves).
(§2) Surface Plasmon Resonance (SPR) binding kinetics The compound of present invention (test compound, Example 12) was covalently immobilized on sensor chip via coupling reaction. At first, the dextran matrix on CM5 chip was activated with NHS (0.02 M) and EDC coupling reagent (0.2 M) at a flow rate of 5 μL min^−1 for 15 min before activating with 50 μL of test compound (0.5 mM) in HBS-EP buffer. In the negative control cell after EDC and NHS activation, 0.5 mM of ethanol amine solution was flowed. The positive RU response on test compound confirmed immobilization of the HS ligand on CM5 chips. Then, different chemokines at a flow rate of 50 μL/min and 25° C. in HBS-EP buffer without growth factor was then flowed over the sensor surface for 3 min to enable association/dissociation. Kinetic analysis was performed using the BIA evaluation software for T100. Association and dissociation phase data were globally fitted to a simple 1:1 interaction model.
(§3) Table 2: SPR analysis of kinetic rate constants and equilibrium affinities of compounds of present invention binding to chemokines
as §2, with “The” for “Surface Plasmon Resonance (SPR) binding kinetics The”, “12, 17 & 18)” for “12)”

[2] = biological target: T2, CXCL8 (Homo sapiens, UniProt P10145); assay: Surface Plasmon Resonance (SPR) binding kinetics; conditions: compound immobilized on CM5 chip, 25° C., 1:1 model
T2 sequence (P10145 21-99): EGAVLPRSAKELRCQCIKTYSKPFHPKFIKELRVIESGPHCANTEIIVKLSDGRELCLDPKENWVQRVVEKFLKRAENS
Experimental: as §1, §2, §3
as §2, with “The” for “Surface Plasmon Resonance (SPR) binding kinetics The”, “12, 17 & 18)” for “12)”

[3] = biological target: T3, CXCL12 (Homo sapiens, UniProt P48061); assay: Surface Plasmon Resonance (SPR) binding kinetics; conditions: compound immobilized on CM5 chip, 25° C., 1:1 model
Experimental: as §1, §2, §3
as §2, with “The” for “Surface Plasmon Resonance (SPR) binding kinetics The”, “12, 17 & 18)” for “12)”

[4] = biological target: T4, CCL5 (Homo sapiens, UniProt P13501); assay: Surface Plasmon Resonance (SPR) binding kinetics; conditions: compound immobilized on CM5 chip, 25° C., 1:1 model
T4 sequence (P13501 24-91): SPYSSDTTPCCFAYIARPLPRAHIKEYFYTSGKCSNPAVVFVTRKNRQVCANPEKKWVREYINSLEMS
Experimental: as §1, §2, §3
as §2, with “The” for “Surface Plasmon Resonance (SPR) binding kinetics The”, “12, 17 & 18)” for “12)”

[5] = biological target: T5, CCL2 (Homo sapiens, UniProt P13500); assay: Surface Plasmon Resonance (SPR) binding kinetics; conditions: compound immobilized on CM5 chip, 25° C., 1:1 model
Experimental: as §1, §2, §3
as §2, with “The” for “Surface Plasmon Resonance (SPR) binding kinetics The”, “12, 17 & 18)” for “12)”

[6] = biological target: T1, CXCL10; assay: Chemokine glycan microarray binding assay; conditions: maximum RFU set as 100% binding, average across 2 glycan concentrations and 3 chemokine dilutions (n=6)
In short: (§4)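 Read-out is Cy3 fluorescence (RFU) of chemokine bound to covalently arrayed glycans, converted to rank against the block's maximum signal and averaged over three chemokine dilutions. Binding ran 2 h at room temperature in PBS pH 7.3 containing 1% ovalbumin; detection used a biotinylated secondary antibody and Cy3-streptavidin.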

[7] = biological target: T2, CXCL8; assay: Chemokine glycan microarray binding assay; conditions: maximum RFU set as 100% binding, average across 2 glycan concentrations and 3 chemokine dilutions (n=6)
In short: as §4

[8] = biological target: T3, CXCL12; assay: Chemokine glycan microarray binding assay; conditions: maximum RFU set as 100% binding, average across 2 glycan concentrations and 3 chemokine dilutions (n=6)
In short: as §4

[9] = biological target: T6, CCL21 (Homo sapiens, UniProt O00585); assay: Chemokine glycan microarray binding assay; conditions: maximum RFU set as 100% binding, average across 2 glycan concentrations and 3 chemokine dilutions (n=6)
T6 sequence (O00585 24-134): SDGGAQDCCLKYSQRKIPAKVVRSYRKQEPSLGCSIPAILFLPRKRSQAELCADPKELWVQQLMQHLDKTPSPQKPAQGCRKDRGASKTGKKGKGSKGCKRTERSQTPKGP
In short: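 Epoxy-slide glycan array; block: PBS pH 7.3 + 1% ovalbumin, 1 h RT. Chemokine, 3 serial dilutions, 2 h RT; biotin-secondary Ab 1 μg/mL → Cy3-SA; fluorescence scan. Max RFU per block = 100%, others ranked; mean rank ± SEM over dilutions.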

[10] = biological target: T7, CCL7 (Homo sapiens, UniProt P80098); assay: Chemokine glycan microarray binding assay; conditions: maximum RFU set as 100% binding, average across 2 glycan concentrations and 3 chemokine dilutions (n=6)
In short: as §4

[11] = biological target: T4, CCL5; assay: Chemokine glycan microarray binding assay; conditions: maximum RFU set as 100% binding, average across 2 glycan concentrations and 3 chemokine dilutions (n=6)
In short: as §4

[12] = biological target: T5, CCL2; assay: Chemokine glycan microarray binding assay; conditions: maximum RFU set as 100% binding, average across 2 glycan concentrations and 3 chemokine dilutions (n=6)
In short: as §4

[13] = biological target: CCL13 (Homo sapiens, UniProt Q99616); assay: Chemokine glycan microarray binding assay; conditions: maximum RFU set as 100% binding, average across 2 glycan concentrations and 3 chemokine dilutions (n=6)
In short: as §4

[14] = biological target: T8, CCL28 (Homo sapiens, UniProt Q9NRJ3); assay: Chemokine glycan microarray binding assay; conditions: maximum RFU set as 100% binding, average across 2 glycan concentrations and 3 chemokine dilutions (n=6)
T8 sequence (Q9NRJ3 20-127): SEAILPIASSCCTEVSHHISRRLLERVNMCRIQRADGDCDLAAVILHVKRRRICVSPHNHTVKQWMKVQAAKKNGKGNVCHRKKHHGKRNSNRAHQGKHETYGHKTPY
In short: as §4

[15] = biological target: T7, CCL7; assay: Surface Plasmon Resonance (SPR) binding kinetics; conditions: compound immobilized on CM5 chip, 25° C., 1:1 model
Experimental: as §1, §2, §3
as §2, with “The” for “Surface Plasmon Resonance (SPR) binding kinetics The”, “12, 17 & 18)” for “12)”

T3 sequence (P48061 22-93, species assumed): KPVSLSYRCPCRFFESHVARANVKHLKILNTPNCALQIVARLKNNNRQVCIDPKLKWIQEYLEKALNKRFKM
Chain of CCL13 (Q99616 17-98, species assumed): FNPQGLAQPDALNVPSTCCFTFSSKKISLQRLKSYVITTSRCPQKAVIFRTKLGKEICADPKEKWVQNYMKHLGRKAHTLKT
T7 sequence (P80098 24-99, species assumed): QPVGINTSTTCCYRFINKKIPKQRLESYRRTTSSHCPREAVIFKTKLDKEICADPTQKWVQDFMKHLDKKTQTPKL
T5 sequence (P13500 24-99, species assumed): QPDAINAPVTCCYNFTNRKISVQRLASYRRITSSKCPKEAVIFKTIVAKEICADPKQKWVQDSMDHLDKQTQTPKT

SMILES	Kd [1] [µM]	Koff [1]	Kon [1]	Kd [2] [µM]	Koff [2]	Kon [2]	Kd [4] [µM]	Koff [4]	Kon [4]	Koff [5]	Kon [5]	mean rank binding to CXCL10 [6] [%]	mean rank binding to CXCL8 [7] [%]	mean rank binding to CXCL12 [8] [%]	mean rank binding to CCL21 [9] [%]	mean rank binding to CCL7 [10] [%]	mean rank binding to CCL5 [11] [%]	mean rank binding to CCL2 [12] [%]	mean rank binding to CCL13 [13] [%]	mean rank binding to CCL28 [14] [%]	other results
NCCOCCO[C@@H]1O[C@@H](C(=O)O)[C@@H](O[C@@H]2O[C@@H](C(=O)O)[C@@H](O[C@@H]3O[C@@H](C(=O)O)[C@@H](O[C@@H]4O[C@@H](C(=O)O)[C@@H](OS(=O)(=O)O)[C@H](O)[C@H]4OS(=O)(=O)O)[C@H](O)[C@H]3OS(=O)(=O)O)[C@H](O)[C@H]2OS(=O)(=O)O)[C@H](O)[C@H]1OS(=O)(=O)O [Example 12, Ethoxy-2-aminoethoxyl-O-((2-4-O-disulfonato)-α-L-idopyranosyl Uronic Acid-α(1->4)(2-O-sulfonato)-α-L-idopyranosyl Uronic Acid-α(1→4)(2-O-sulfonato)-α-L-idopyranosyl Uronic Acid-α(1→4)(2-O-sulfonato))-α-L-idopyranoside Uronic Acid]	15.3 ± 0.21	2.2 ± 0.38 × 10^−1 S^−1	1.44 ± 0.46 × 10^4 M^−1S^−1	9.34 ± 0.21	2.96 ± 0.1 × 10^−1 S^−1	3.16 ± 0.08 × 10^5 M^−1S^−1	5.72 ± 0.24	2.4 ± 0.38 × 10^−1 S^−1	4.2 ± 0.46 × 10^4 M^−1S^−1	2.1 ± 0.5 × 10^−1 S^−1	1.26 ± 0.08 × 10^5 M^−1S^−1	87	96	91	50	80	91	88	70	72	Kd [3]: 18.8 ± 0.44 µM; Koff [3]: 2.1 ± 0.78 × 10^−1 S^−1; Kon [3]: 1.1 ± 0.46 × 10^4 M^−1S^−1; Kd [5]: 1.67 ± 0.3 µM
NCCCO[C@@H]1O[C@@H](C(=O)O)[C@@H](O[C@H]2O[C@H](COS(=O)(=O)O)[C@@H](O[C@@H]3O[C@@H](C(=O)O)[C@@H](O[C@H]4O[C@H](COS(=O)(=O)O)[C@@H](O)[C@H](OS(=O)(=O)O)[C@H]4N)[C@H](O)[C@H]3O)[C@H](OS(=O)(=O)O)[C@H]2N)[C@H](O)[C@H]1O [Example 17, 3-Aminopropyl-O-[(2-amino-6-O-sulfonato-3-O-sulfonato-2-deoxy-α-D-glucopyranosyl)-(1→4)-O-(α-L-idopyranosyluronate)-(1→4)-O-(2-amino-6-O-sulfonato-3-O-sulfonato-2-deoxy-α-D-glucopyranosyl)]-(1→4)-O-α-L-idopyranosiduronate]	11 ± 0.37	1.69 ± 0.33 × 10^−1 S^−1	1.53 ± 0.26 × 10^4 M^−1S^−1	11.7 ± 0.17	2.18 ± 0.28 × 10^−1 S^−1	1.87 ± 0.22 × 10^4 M^−1S^−1	6.81 ± 0.33	2.98 ± 0.31 × 10^−1 S^−1	4.37 ± 0.31 × 10^4 M^−1S^−1	2.11 ± 0.34 × 10^−1 S^−1	11.17 ± 0.32 × 10^4 M^−1S^−1	96	94	80	73	89	82	95	69	54	Kd [15]: 11.3 ± 0.18 µM; Koff [15]: 2.86 ± 0.21 × 10^−1 S^−1; Kon [15]: 2.53 ± 0.15 × 10^4 M^−1S^−1
NCCCO[C@@H]1OC(C(=O)O)[C@@H](O[C@H]2OC(COS(=O)(=O)O)[C@@H](O[C@@H]3OC(C(=O)O)[C@@H](O[C@H]4OC(COS(=O)(=O)O)[C@@H](O)C(O)C4N)C(O)C3OS(=O)(=O)O)C(O)C2N)C(O)C1OS(=O)(=O)O (stereo partly drawn) [Example 19, 3-Aminopropyl-O-[(2-amino-6-O-sulfonato-2-deoxy-α-D-glucopyranosyl)-(1→4)-O-(2-O-sulfonato-α-L-idopyranosyluronate)-(1→4)-O-(2-amino-6-O-sulfonato-2-deoxy-α-D-glucopyranosyl)]-(1→4)-O-2-O-sulfonato-α-L-idopyranosiduronate]	10.7 ± 0.37	2.24 ± 0.35 × 10^−1 S^−1	2.07 ± 0.26 × 10^4 M^−1S^−1	15.9 ± 0.23	1.96 ± 0.29 × 10^−1 S^−1	1.23 ± 0.17 × 10^4 M^−1S^−1	–	2.14 ± 0.48 × 10^−1 S^−1	9.15 ± 0.34 × 10^4 M^−1S^−1	2.03 ± 0.17 × 10^−1 S^−1	2.07 ± 0.13 × 10^4 M^−1S^−1	89	79	79	66	91	95	80	74	79	Kd [15]: 11.5 ± 0.17 µM; Koff [15]: 2.25 ± 0.29 × 10^−1 S^−1; Kon [15]: 1.96 ± 0.22 × 10^4 M^−1S^−1; Kd [5]: 9.82 ± 0.18 µM
NCCCO[C@@H]1OC(C(=O)O)[C@@H](O[C@H]2OC(COS(=O)(=O)O)[C@@H](O[C@@H]3OC(C(=O)O)[C@@H](O[C@H]4OC(COS(=O)(=O)O)[C@@H](O)[C@H](O)C4N)C(O)[C@@H]3O)[C@H](O)C2N)C(O)[C@@H]1O (stereo partly drawn) [Example 23, 3-Aminopropyl-O-[(2-amino-6-O-sulfonato-2-deoxy-α-D-glucopyranosyl)-(1→4)-O-(α-L-idopyranosyluronate)-(1→4)-O-(2-amino-6-O-sulfonato-2-deoxy-α-D-glucopyranosyl)]-(1→4)-O-α-L-idopyranosiduronate]	–	–	–	–	–	–	–	–	–	–	–	15	5	25	25	11	3	1	45	38	–
